Test results reported in paper PMC4210713, “Intragenic antimicrobial peptides from Theobroma cacao” (BMC Proceedings, 2014).
Where no end group is shown, it is not given here.

Test system: Candida albicans ATCC 90028
Conditions: C. albicans ATCC 90028; broth microdilution, CLSI M27-A3; tested at 256 μM-0.5 μM; preliminary results

Question: With GFKDLLKGAAKALVKTVLF-NH2 [Ascaphin-8] as the substance, how does the “MIC (minimum inhibitory concentration)” value read?
Answer: The value was 8 µM.
